Measured values reported in US10927123B2, “Modulators of the beta-3 adrenergic receptor useful for the treatment or prevention of disorders related thereto” (Arena Pharmaceuticals, Inc., priority 2016, dated 2021).

The molecules below were run against Beta-3 Adrenergic Receptor (Homo sapiens (Human), UniProt P13945) (assay: HTRF cAMP antagonist assay (IC50 determination)). Conditions: CHO-K1 cells stably expressing recombinant receptor; antagonism of isoproterenol at EC90; cAMP readout.
Beta-3 Adrenergic Receptor, sequence (P13945 whole entry, species assumed): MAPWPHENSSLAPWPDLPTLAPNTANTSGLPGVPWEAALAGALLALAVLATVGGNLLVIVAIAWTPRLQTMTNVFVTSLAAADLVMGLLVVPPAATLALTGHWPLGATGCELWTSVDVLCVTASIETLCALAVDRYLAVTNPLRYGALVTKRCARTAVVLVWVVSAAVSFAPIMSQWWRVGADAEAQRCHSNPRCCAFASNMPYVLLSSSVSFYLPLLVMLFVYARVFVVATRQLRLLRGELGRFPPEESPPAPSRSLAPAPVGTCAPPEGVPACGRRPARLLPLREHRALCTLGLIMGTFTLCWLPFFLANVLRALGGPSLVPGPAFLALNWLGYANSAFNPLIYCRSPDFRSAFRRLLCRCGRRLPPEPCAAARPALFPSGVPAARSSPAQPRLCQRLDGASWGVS
Type: cell-based
Method in brief: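 CHO-K1 cells stably expressing the recombinant receptor were preincubated with compound (10-point, 5-fold dilutions; top final typically 10 or 100 μM) in PBS with 1 mM IBMX, then stimulated with isoproterenol at its EC90 for 1 h at room temperature. cAMP was read by HTRF against an on-plate standard curve.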
An IC50 of 157 nM was found for `Cc1ccc(-c2cccc(S(=O)(=O)N3CCC4(CC3)C[C@@H](NC[C@H](O)COc3cccc(S(=O)(=O)CCO)c3)CO4)c2)nc1` [Compound 127, (S)-1-(3-(2-hydroxyethylsulfonyl)phenoxy)-3-((R)-8-(3-(5-methylpyridin-2-yl)phenylsulfonyl)-1-oxa-8-azaspiro[4.5]decan-3-ylamino)propan-2-ol] in this work.
An IC50 of 108 nM was found for `Cc1cccc(-c2cccc(S(=O)(=O)N3CCC4(CC3)C[C@@H](NC[C@H](O)COc3cccc(S(=O)(=O)CCO)c3)CO4)c2)n1` [Compound 128, (S)-1-(3-(2-hydroxyethylsulfonyl)phenoxy)-3-((R)-8-(3-(6-methylpyridin-2-yl)phenylsulfonyl)-1-oxa-8-azaspiro[4.5]decan-3-ylamino)propan-2-ol] in this work.
An IC50 of 485 nM was found for `Cc1ccnc(-c2cccc(S(=O)(=O)N3CCC4(CC3)C[C@@H](NC[C@H](O)COc3cccc(S(=O)(=O)CCO)c3)CO4)c2)c1` [Compound 129, (S)-1-(3-(2-hydroxyethylsulfonyl)phenoxy)-3-((R)-8-(3-(4-methylpyridin-2-yl)phenylsulfonyl)-1-oxa-8-azaspiro[4.5]decan-3-ylamino)propan-2-ol] in this work.
An IC50 of 12 nM was found for `O=S(=O)(c1cnc2ccccc2c1)N1CCC2(CC1)C[C@@H](NC[C@H](O)COc1cccc(S(=O)(=O)C(F)(F)CO)c1)CO2` [Compound 130, (S)-1-(3-(1,1-difluoro-2-hydroxyethylsulfonyl)phenoxy)-3-((R)-8-(quinolin-3-ylsulfonyl)-1-oxa-8-azaspiro[4.5]decan-3-ylamino)propan-2-ol] in this work.
An IC50 of 23.7 nM was found for `COCS(=O)(=O)c1cccc(OC[C@@H](O)CN[C@H]2COC3(CCN(S(=O)(=O)c4ccc5ncccc5c4)CC3)C2)c1` [Compound 131, (S)-1-(3-(methoxymethylsulfonyl)phenoxy)-3-((R)-8-(quinolin-6-ylsulfonyl)-1-oxa-8-azaspiro[4.5]decan-3-ylamino)propan-2-ol] in this work.
An IC50 of 739 nM was found for `COCCCS(=O)(=O)c1cccc(OC[C@@H](O)CN[C@H]2COC3(CCN(S(=O)(=O)c4ccc5ncccc5c4)CC3)C2)c1` [Compound 132, (S)-1-(3-(3-methoxypropylsulfonyl)phenoxy)-3-((R)-8-(quinolin-6-ylsulfonyl)-1-oxa-8-azaspiro[4.5]decan-3-ylamino)propan-2-ol] in this work.
An IC50 of 443 nM was found for `NC(=O)CCS(=O)(=O)c1cccc(OC[C@@H](O)CN[C@H]2COC3(CCN(S(=O)(=O)c4ccc5ncccc5c4)CC3)C2)c1` [Compound 133, 3-(3-((S)-2-hydroxy-3-((R)-8-(quinolin-6-ylsulfonyl)-1-oxa-8-azaspiro[4.5]decan-3-ylamino)propoxy)phenylsulfonyl)propanamide] in this work.
An IC50 of 55.1 nM was found for `O=S(=O)(CCO)c1cccc(OC[C@@H](O)CN[C@H]2COC3(CCN(S(=O)(=O)c4cccc(-c5cccc(F)n5)c4)CC3)C2)c1` [Compound 134, (S)-1-((R)-8-(3-(6-fluoropyridin-2-yl)phenylsulfonyl)-1-oxa-8-azaspiro[4.5]decan-3-ylamino)-3-(3-(2-hydroxyethylsulfonyl)phenoxy)propan-2-ol] in this work.
An IC50 of 88.8 nM was found for `O=S(=O)(CCCO)c1cccc(OC[C@@H](O)CN[C@H]2COC3(CCN(S(=O)(=O)c4cnc5ccccc5c4)CC3)C2)c1` [Compound 135, 3-(3-((S)-2-hydroxy-3-((R)-8-(quinolin-3-ylsulfonyl)-1-oxa-8-azaspiro[4.5]decan-3-ylamino)propoxy)phenylsulfonyl)propan-1-ol] in this work.
An IC50 of 18.8 nM was found for `O=S(=O)(c1cnc2ccccc2c1)N1CCC2(CC1)C[C@@H](NC[C@H](O)COc1cccc(S(=O)(=O)C3(CO)CC3)c1)CO2` [Compound 136, (S)-1-(3-(1-(hydroxymethyl)cyclopropylsulfonyl)phenoxy)-3-((R)-8-(quinolin-3-ylsulfonyl)-1-oxa-8-azaspiro[4.5]decan-3-ylamino)propan-2-ol] in this work.
An IC50 of 350 nM was found for `NC(=O)CS(=O)(=O)c1cccc(OC[C@@H](O)CN[C@H]2COC3(CCN(S(=O)(=O)c4ccc5ncccc5c4)CC3)C2)c1` [Compound 137, 2-(3-((S)-2-hydroxy-3-((R)-8-(quinolin-6-ylsulfonyl)-1-oxa-8-azaspiro[4.5]decan-3-ylamino)propoxy)phenylsulfonyl)acetamide] in this work.
An IC50 of 20.4 nM was found for `O=S(=O)(c1cccc(OC[C@@H](O)CN[C@H]2COC3(CCN(S(=O)(=O)c4cnc5ccccc5c4)CC3)C2)c1)C1CCC1` [Compound 138, (S)-1-(3-(cyclobutylsulfonyl)phenoxy)-3-((R)-8-(quinolin-3-ylsulfonyl)-1-oxa-8-azaspiro[4.5]decan-3-ylamino)propan-2-ol] in this work.
An IC50 of 36.2 nM was found for `CCCS(=O)(=O)c1cccc(OC[C@@H](O)CN[C@H]2COC3(CCN(S(=O)(=O)c4cnc5ccccc5c4)CC3)C2)c1` [Compound 139, (S)-1-(3-(propylsulfonyl)phenoxy)-3-((R)-8-(quinolin-3-ylsulfonyl)-1-oxa-8-azaspiro[4.5]decan-3-ylamino)propan-2-ol] in this work.
An IC50 of 45.9 nM was found for `O=S(=O)(CC1CC1)c1cccc(OC[C@@H](O)CN[C@H]2COC3(CCN(S(=O)(=O)c4cnc5ccccc5c4)CC3)C2)c1` [Compound 140, (S)-1-(3-(cyclopropylmethylsulfonyl)phenoxy)-3-((R)-8-(quinolin-3-ylsulfonyl)-1-oxa-8-azaspiro[4.5]decan-3-ylamino)propan-2-ol] in this work.
An IC50 of 11.6 nM was found for `COCS(=O)(=O)c1cccc(OC[C@@H](O)CN[C@H]2COC3(CCN(S(=O)(=O)c4cnc5ccccc5c4)CC3)C2)c1` [Compound 141, (S)-1-(3-(methoxymethylsulfonyl)phenoxy)-3-((R)-8-(quinolin-3-ylsulfonyl)-1-oxa-8-azaspiro[4.5]decan-3-ylamino)propan-2-ol] in this work.
An IC50 of 106 nM was found for `NC(=O)CCS(=O)(=O)c1cccc(OC[C@@H](O)CN[C@H]2COC3(CCN(S(=O)(=O)c4cnc5ccccc5c4)CC3)C2)c1` [Compound 142, 3-(3-((S)-2-hydroxy-3-((R)-8-(quinolin-3-ylsulfonyl)-1-oxa-8-azaspiro[4.5]decan-3-ylamino)propoxy)phenylsulfonyl)propanamide] in this work.
An IC50 of 13.2 nM was found for `O=S(=O)(c1cccc(OC[C@@H](O)CN[C@H]2COC3(CCN(S(=O)(=O)c4ccc5ncccc5c4)CC3)C2)c1)C1CC1` [Compound 143, (S)-1-(3-(cyclopropylsulfonyl)phenoxy)-3-((R)-8-(quinolin-6-ylsulfonyl)-1-oxa-8-azaspiro[4.5]decan-3-ylamino)propan-2-ol] in this work.
An IC50 of 7.77 nM was found for `O=S(=O)(c1cccc(OC[C@@H](O)CN[C@H]2COC3(CCN(S(=O)(=O)c4cnc5ccccc5c4)CC3)C2)c1)C1CC1` [Compound 144, (S)-1-(3-(cyclopropylsulfonyl)phenoxy)-3-((R)-8-(quinolin-3-ylsulfonyl)-1-oxa-8-azaspiro[4.5]decan-3-ylamino)propan-2-ol] in this work.
An IC50 of 81.9 nM was found for `CCOC(=O)C(C)(C)S(=O)(=O)c1cccc(OC[C@@H](O)CN[C@H]2COC3(CCN(S(=O)(=O)c4cnc5ccccc5c4)CC3)C2)c1` [Compound 145, ethyl 2-(3-((S)-2-hydroxy-3-((R)-8-(quinolin-3-ylsulfonyl)-1-oxa-8-azaspiro[4.5]decan-3-ylamino)propoxy)phenylsulfonyl)-2-methylpropanoate] in this work.
An IC50 of 104 nM was found for `O=S(=O)(c1cccc(OC[C@@H](O)CN[C@H]2COC3(CCN(S(=O)(=O)c4cnc5ccccc5c4)CC3)C2)c1)C1CC(O)C1` (stereo partly drawn) [Compound 146, 3-(3-((S)-2-hydroxy-3-((R)-8-(quinolin-3-ylsulfonyl)-1-oxa-8-azaspiro[4.5]decan-3-ylamino)propoxy)phenylsulfonyl)cyclobutanol] in this work.
An IC50 of 53.3 nM was found for `O=S(=O)(c1ccc2ncccc2c1)N1CCC2(CC1)C[C@@H](NC[C@H](O)COc1cccc(S(=O)(=O)C3(CO)CC3)c1)CO2` [Compound 147, (S)-1-(3-(1-(hydroxymethyl)cyclopropylsulfonyl)phenoxy)-3-((R)-8-(quinolin-6-ylsulfonyl)-1-oxa-8-azaspiro[4.5]decan-3-ylamino)propan-2-ol] in this work.
An IC50 of 21.8 nM was found for `O=S(=O)(c1ccc2ncccc2c1)N1CCC2(CC1)C[C@@H](NC[C@H](O)COc1cccc(S(=O)(=O)C(F)(F)CO)c1)CO2` [Compound 148, (S)-1-(3-(1,1-difluoro-2-hydroxyethylsulfonyl)phenoxy)-3-((R)-8-(quinolin-6-ylsulfonyl)-1-oxa-8-azaspiro[4.5]decan-3-ylamino)propan-2-ol] in this work.
An IC50 of 97.3 nM was found for `COCCCS(=O)(=O)c1cccc(OC[C@@H](O)CN[C@H]2COC3(CCN(S(=O)(=O)c4cnc5ccccc5c4)CC3)C2)c1` [Compound 149, (S)-1-(3-(3-methoxypropylsulfonyl)phenoxy)-3-((R)-8-(quinolin-3-ylsulfonyl)-1-oxa-8-azaspiro[4.5]decan-3-ylamino)propan-2-ol] in this work.
An IC50 of 227 nM was found for `CN1CCOc2ncc(S(=O)(=O)N3CCC4(CC3)C[C@@H](NC[C@H](O)COc3cccc(S(=O)(=O)CCCO)c3)CO4)cc21` [Compound 150, 3-(3-((S)-2-hydroxy-3-((R)-8-(1-methyl-2,3-dihydro-1H-pyrido[2,3-b][1,4]oxazin-7-ylsulfonyl)-1-oxa-8-azaspiro[4.5]decan-3-ylamino)propoxy)phenylsulfonyl)propan-1-ol] in this work.
An IC50 of 40.8 nM was found for `CN1CCOc2ncc(S(=O)(=O)N3CCC4(CC3)C[C@@H](NC[C@H](O)COc3cccc(S(=O)(=O)CCO)c3)CO4)cc21` [Compound 151, (S)-1-(3-(2-hydroxyethylsulfonyl)phenoxy)-3-((R)-8-(1-methyl-2,3-dihydro-1H-pyrido[2,3-b][1,4]oxazin-7-ylsulfonyl)-1-oxa-8-azaspiro[4.5]decan-3-ylamino)propan-2-ol] in this work.
An IC50 of 24.7 nM was found for `CN1CCOc2ncc(S(=O)(=O)N3CCC4(CC3)C[C@@H](NC[C@H](O)COc3cccc(S(C)(=O)=O)c3)CO4)cc21` [Compound 152, (S)-1-((R)-8-(1-methyl-2,3-dihydro-1H-pyrido[2,3-b][1,4]oxazin-7-ylsulfonyl)-1-oxa-8-azaspiro[4.5]decan-3-ylamino)-3-(3-(methylsulfonyl)phenoxy)propan-2-ol] in this work.
